Like-named read-outs stand apart in the source and are kept apart here.
Columns and labels:
[1] = target: T1, Mycobacterium tuberculosis IspD (MtIspD) (Mycobacterium tuberculosis, UniProt P9WKG9); experiment: Thermal shift assay against MtIspD; assay type: binding
T1 sequence (P9WKG9 1-231): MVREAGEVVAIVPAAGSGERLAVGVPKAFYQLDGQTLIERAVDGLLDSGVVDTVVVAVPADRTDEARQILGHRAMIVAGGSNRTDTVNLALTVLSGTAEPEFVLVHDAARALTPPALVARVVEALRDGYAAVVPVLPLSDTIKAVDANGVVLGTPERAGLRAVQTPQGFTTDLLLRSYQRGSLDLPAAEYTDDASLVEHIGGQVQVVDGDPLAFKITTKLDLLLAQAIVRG

[2] = target: Lycopersicon esculentum IspE (LeIspE) (Solanum lycopersicum, UniProt P93841); experiment: Thermal shift assay against LeIspE; assay type: binding
Ec IspE = Ec IspE (Escherichia coli, UniProt P62615); experiment: Kinase-Glo luminescent enzymatic assay Ec IspE; assay type: biochemical
Bt IspE [3] = target: T2, Bt IspE (Burkholderia thailandensis, UniProt Q2T1B6); experiment: biochemical
lettuce seeds = experiment: Lettuce leaf assay; assay type: in vivo; design: key: 0 (no effect); 5(complete inhibition or bleaching); settings: ranking 0-5
Method in brief: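 Qualitative assay: compounds in volatile organic solvent applied to filter paper in a petri dish, solvent evaporated, lettuce seeds and 5 mL water added to give test concentrations. Germination, root development and leaf bleaching scored days 3 and 4, ranked 0 (no effect) to 5 (complete inhibition or bleaching).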

AtIspD = AtIspD (Arabidopsis thaliana, UniProt P69834); experiment: University of Hamburg photometric enzymatic inhibition assay AtIspD; assay type: biochemical; settings: read-out: AtIspD IC50
Method in brief: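 Coupled photometric assay: 2.4 mU AtIspD with 1 mM (2R,3S)-2,3-dihydroxy-4-oxopentyl phosphate, 2.1 mM CTP, excess IspE (0.4 U), ATP, pyruvate kinase/lactate dehydrogenase and 460 μM NADH. Run in 100 mM Tris-HCl pH 8.0, 10 mM MgCl2, 1 mM DTT, 1.1% DMSO at 27 °C, monitored photometrically.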

LeIspE = LeIspE (Solanum lycopersicum, UniProt P93841); experiment: University of Hamburg photometric enzymatic inhibition assay LeIspE; assay type: biochemical, Lycopersicon esculentum; settings: read-out: LeIspE IC50
Method in brief: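 Photometric coupled assay with pyruvate kinase/lactate dehydrogenase following NADH (460 μM). Mix: 100 mM Tris-HCl pH 8.0, 10 mM MgCl2, 1 mM DTT, 2.5 mM phosphoenolpyruvate, 2 mM ATP, 1 mM 4-diphosphocytidyl-2-C-methylerythritol, 1.1% DMSO, 2.4 mU IspE; incubated at 27° C.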

AtIspF = AtIspF (Arabidopsis thaliana, UniProt Q9CAK8); experiment: University of Hamburg photometric enzymatic inhibition assay AtIspF; assay type: biochemical; settings: read-out: AtIspF IC50
Method in brief: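 Coupled photometric assay (CMP kinase/pyruvate kinase/lactate dehydrogenase, NADH consumption) with 2.4 mU AtIspF and 1 mM 4-diphosphocytidyl-2C-methylerythritol 2-phosphate, 2 mM ATP, in 100 mM Tris-HCl pH 8.0, 10 mM MgCl2, 1.1% DMSO. Monitored at 27 °C.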

[4] = test system: Burkholderia thailandensis; assay type: cell-based; settings: preliminary screening, score 0-3
Mycobacterium smegmatis [5] = experiment: Antibacterial preliminary screening MS; assay type: cell-based; settings: score 0-3; note: key: 0 represents no inhibition; 3 is comparable to commercial antibiotic control
Corynebacterium xerosis [6] = experiment: Antibacterial preliminary screening CX; assay type: cell-based; settings: score 0-3; note: key: 0 represents no inhibition; 3 is comparable to commercial antibiotic control
[7] = test system: Corynebacterium pseudodiphtheriae; experiment: Antibacterial preliminary screening CP; assay type: cell-based; settings: score 0-3;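 note: 0 is no inhibition and 3 matches the commercial antibiotic control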
Escherichia coli [8] = experiment: Antibacterial preliminary screening EC; assay type: cell-based; settings: score 0-3; note: key: 0 represents no inhibition; 3 is comparable to commercial antibiotic control
Klebsiella pneumonia [9] = experiment: Antibacterial preliminary screening KP; assay type: cell-based; settings: score 0-3; note: key: 0 represents no inhibition; 3 is comparable to commercial antibiotic control
Micrococcus luteus [10] = experiment: Antibacterial preliminary screening ML; assay type: cell-based; settings: score 0-3; note: key: 0 represents no inhibition; 3 is comparable to commercial antibiotic control
Bacillus cereus [11] = experiment: Antibacterial preliminary screening BC; assay type: cell-based; settings: score 0-3; note: key: 0 represents no inhibition; 3 is comparable to commercial antibiotic control
Pseudomonas aeruginosa [12] = experiment: Antibacterial preliminary screening PA; assay type: cell-based
[13] = test system: Burkholderia thailandensis; assay type: cell-based
Pseudomonas aeruginosa [14] = experiment: Antibacterial assay zone of inhibition Pa; assay type: cell-based
Micrococcus luteus [15] = experiment: Antibacterial assay zone of inhibition Ml; assay type: cell-based
Klebsiella pneumonia [16] = experiment: Antibacterial assay zone of inhibition Kp; assay type: cell-based
Escherichia coli [17] = experiment: Antibacterial assay zone of inhibition Ec; assay type: cell-based
Bacillus cereus [18] = experiment: Antibacterial assay zone of inhibition Bc; assay type: cell-based
Mycobacterium smegmatis [19] = experiment: Antibacterial assay zone of inhibition Ms; assay type: cell-based
Corynebacterium xerosis [20] = experiment: Antibacterial assay zone of inhibition Cx; assay type: cell-based
[21] = test system: Corynebacterium pseudodiphtheriae; experiment: Antibacterial assay zone of inhibition Cp; assay type: cell-based
Bt IspE [22] = target: T2, Bt IspE; experiment: ITC binding study with Bt IspE
Protocol: All ITC experiments were performed under the same conditions as described herein. Compounds were dissolved in DMSO and brought to concentration with the dialysis buffer, with a maximum DMSO concentration of 10% by volume which was matched between ligand and enzyme, and centrifuged at 10,000 RPM for 10 minutes. The dialysis buffer was used for all sample dilutions to ensure buffers matching between the titrant and titrate, thus minimizing the excess heat due to buffer mismatch. ITC experiments were performed with IspE in the cell and ligand in the syringe. The initial injection volume was 2 μL (omitted) followed by 27 10 μL injections, every 240 seconds. Samples were run at 25° C., at pH 7.4, with a stirring speed of 307 RPM. Dilution runs were performed to allow determination of background heats caused by solution mismatch and instrument noise. Dilution runs were performed with ligand (at the same concentration as in the experiment run) in the syringe titrated into the dialysis buffer in the cell. Data were fit using OriginPro 7 with the ITC add-on by the manufacturer.

T2 sequence (Q2T1B6 whole entry): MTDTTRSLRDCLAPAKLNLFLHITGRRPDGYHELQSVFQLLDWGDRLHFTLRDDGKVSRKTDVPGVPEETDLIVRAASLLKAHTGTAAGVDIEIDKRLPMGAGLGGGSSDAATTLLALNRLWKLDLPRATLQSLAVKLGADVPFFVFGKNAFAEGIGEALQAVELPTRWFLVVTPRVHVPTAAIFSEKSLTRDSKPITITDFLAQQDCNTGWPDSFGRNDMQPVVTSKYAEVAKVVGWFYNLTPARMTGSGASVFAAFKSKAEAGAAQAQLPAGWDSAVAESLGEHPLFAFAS
Lycopersicon esculentum IspE (LeIspE), sequence (P93841 89-401): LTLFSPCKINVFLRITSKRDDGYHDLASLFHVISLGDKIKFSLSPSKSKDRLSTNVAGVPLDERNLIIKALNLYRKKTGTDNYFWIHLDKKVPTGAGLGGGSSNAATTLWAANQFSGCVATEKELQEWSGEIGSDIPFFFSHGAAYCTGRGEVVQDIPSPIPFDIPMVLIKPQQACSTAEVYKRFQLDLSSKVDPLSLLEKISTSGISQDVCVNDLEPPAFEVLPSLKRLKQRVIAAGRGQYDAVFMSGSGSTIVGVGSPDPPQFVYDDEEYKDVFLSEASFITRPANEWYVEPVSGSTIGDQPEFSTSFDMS
AtIspD, sequence (P69834 62-302): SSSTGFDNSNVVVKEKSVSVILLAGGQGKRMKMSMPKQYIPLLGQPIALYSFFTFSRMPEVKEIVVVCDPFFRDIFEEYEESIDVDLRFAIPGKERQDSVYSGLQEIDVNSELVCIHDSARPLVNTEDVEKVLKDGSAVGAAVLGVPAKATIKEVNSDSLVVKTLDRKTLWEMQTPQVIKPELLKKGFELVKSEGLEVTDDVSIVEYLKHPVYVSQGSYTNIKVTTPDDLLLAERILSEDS
Ec IspE, sequence (P62615 whole entry): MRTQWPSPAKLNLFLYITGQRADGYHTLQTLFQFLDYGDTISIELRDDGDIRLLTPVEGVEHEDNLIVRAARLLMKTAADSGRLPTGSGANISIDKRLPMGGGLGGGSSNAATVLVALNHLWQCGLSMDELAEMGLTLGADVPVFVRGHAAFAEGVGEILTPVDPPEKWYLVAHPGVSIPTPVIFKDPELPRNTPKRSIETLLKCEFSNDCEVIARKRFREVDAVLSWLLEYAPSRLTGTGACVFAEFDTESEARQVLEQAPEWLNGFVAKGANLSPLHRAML
AtIspF, sequence (Q9CAK8 53-231): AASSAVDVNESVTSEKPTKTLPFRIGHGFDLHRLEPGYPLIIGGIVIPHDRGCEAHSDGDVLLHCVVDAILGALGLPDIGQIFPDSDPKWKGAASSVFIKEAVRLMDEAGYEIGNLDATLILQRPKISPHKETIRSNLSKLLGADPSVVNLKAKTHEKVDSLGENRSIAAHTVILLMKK
LeIspE, sequence (P93841 89-401): as the sequence (P93841 89-401) above

For Clc1ccc(OCc2nnc(-c3nc4ccccc4s3)o2)c(Cl)c1 [HGN-333, 2-(benzo[d]thiazol-2-yl)-5-((2,4-dichlorophenoxy)methyl)-1,3,4-oxadiazole], the “MtIspD melting point change” value [1] was 1.3 °C, the MtIspD melting temp [1] was 49.3 °C and the “LeIspE melting point change” value [2] was −1.75 °C. The LeIspE melting temp [2] was 47.75 °C, the IC50 (Ec IspE) was 3 µM and the IC50 (Bt IspE [3]) was 28 µM. The Bleaching (lettuce seeds; 0.15 mM) was 0, the Germination (lettuce seeds; 0.15 mM) was 0 and the “Root Dev.” value (lettuce seeds; 0.15 mM) was 0. The Bleaching (lettuce seeds; 0.3 mM) was 0, the Germination (lettuce seeds; 0.3 mM) was 0 and the “Root Dev.” value (lettuce seeds; 0.3 mM) was 0. The IC50 (AtIspD) was 151 µM, the IC50 (LeIspE) was 31 µM and the IC50 (AtIspF) was 291 µM. The BT score [4] was 0, the MS score (Mycobacterium smegmatis [5]) was 0 and the CX score (Corynebacterium xerosis [6]) was 0. The CP score [7] was 0, the EC score (Escherichia coli [8]) was 0 and the KP score (Klebsiella pneumonia [9]) was 0. For the same compound, the ML score (Micrococcus luteus [10]) was 0, the BC score (Bacillus cereus [11]) was 0 and the “effectiveness against Pseudomonas aeruginosa” value (Pseudomonas aeruginosa [12]) was “moderately effective”. The PA score (Pseudomonas aeruginosa [12]; score 0-3) was 2, the “Antibacterial Bt zone of inhibition” value ([13]; 0.1 mM) was 0 millimeters and the “Antibacterial Bt zone of inhibition” value ([13]; 0.5 mM) was 15 millimeters. For the same compound, the “Antibacterial Bt zone of inhibition” value ([13]; 1 mM) was 19 millimeters, the “Antibacterial Pa zone of inhibition” value (Pseudomonas aeruginosa [14]; 0.1 mM) was 0 millimeters and the “Antibacterial Pa zone of inhibition” value (Pseudomonas aeruginosa [14]; 0.5 mM) was 18 millimeters. The “Antibacterial Pa zone of inhibition” value (Pseudomonas aeruginosa [14]; 1 mM) was 25 millimeters, the “Antibacterial Ml zone of inhibition” value (Micrococcus luteus [15]; 0.1 mM) was 0 millimeters and the “Antibacterial Ml zone of inhibition” value (Micrococcus luteus [15]; 0.5 mM) was 0 millimeters. For the same compound, the “Antibacterial Ml zone of inhibition” value (Micrococcus luteus [15]; 1 mM) was 0 millimeters, the “Antibacterial Kp zone of inhibition” value (Klebsiella pneumonia [16]; 0.1 mM) was 0 millimeters and the “Antibacterial Kp zone of inhibition” value (Klebsiella pneumonia [16]; 0.5 mM) was 0 millimeters. The “Antibacterial Kp zone of inhibition” value (Klebsiella pneumonia [16]; 1 mM) was 0 millimeters, the “Antibacterial Ec zone of inhibition” value (Escherichia coli [17]; 0.1 mM) was 0 millimeters and the “Antibacterial Ec zone of inhibition” value (Escherichia coli [17]; 0.5 mM) was 0 millimeters. The “Antibacterial Ec zone of inhibition” value (Escherichia coli [17]; 1 mM) was 0 millimeters, the “Antibacterial Bc zone of inhibition” value (Bacillus cereus [18]; 0.1 mM) was 0 millimeters and the “Antibacterial Bc zone of inhibition” value (Bacillus cereus [18]; 0.5 mM) was 0 millimeters. For the same compound, the “Antibacterial Bc zone of inhibition” value (Bacillus cereus [18]; 1 mM) was 12.5 millimeters, the “Antibacterial Ms zone of inhibition” value (Mycobacterium smegmatis [19]; 0.1 mM) was 0 millimeters and the “Antibacterial Ms zone of inhibition” value (Mycobacterium smegmatis [19]; 0.5 mM) was 0 millimeters. For the same compound, the “Antibacterial Ms zone of inhibition” value (Mycobacterium smegmatis [19]; 1 mM) was 0 millimeters, the “Antibacterial Cx zone of inhibition” value (Corynebacterium xerosis [20]; 0.1 mM) was 0 millimeters and the “Antibacterial Cx zone of inhibition” value (Corynebacterium xerosis [20]; 0.5 mM) was 0 millimeters. The “Antibacterial Cx zone of inhibition” value (Corynebacterium xerosis [20]; 1 mM) was 0 millimeters, the “Antibacterial Cp zone of inhibition” value ([21]; 0.1 mM) was 0 millimeters and the “Antibacterial Cp zone of inhibition” value ([21]; 0.5 mM) was 0 millimeters. The “Antibacterial Cp zone of inhibition” value ([21]; 1 mM) was 0 millimeters, the melting point was 163 to 165 °C and the “KD app (ITC, words)” value (Bt IspE [22]) was “in the nanomolar range”. For the same compound, the “binding stoichiometry (ITC)” value (Bt IspE [22]) was 0.903, the “ΔH° (ITC)” value (Bt IspE [22]) was -8.6 kcal/mol and the “−TΔS (ITC)” value (Bt IspE [22]) was -17.8 kcal/mol. For the same compound, the “entropic contribution −TΔS (ITC)” value (Bt IspE [22]; b178, unit not given) was −17.8.

— patent US11026426B2, “Oxadiazole and phenol derivatives as antibacterial and/or herbicidal agents” (NORTHERN ILLINOIS RESEARCH FOUNDATION, priority 2017, dated 2021)
